# Measurements as given in USRE38117E1, “Trioxane dimer compound having antiproliferative and antitumor activities” (Hauser, Inc., priority 1995, dated 2003).
# What was measured:
# Format in all cases: cell-based
# [1] = system: SN12C; assay: NCI 60 cell line screen (SRB), Renal Cancer
# [2] = system: HCT-15; assay: NCI 60 cell line screen (SRB), Colon Cancer; settings: HCT-15 (Colon Cancer)
# [3] = system: T-47D; assay: NCI 60 cell line screen (SRB), Breast Cancer; settings: T-47D (Breast Cancer)
# [4] = system: RXF 393; assay: NCI 60 cell line screen (SRB), Renal Cancer; settings: RXF 393 (Renal Cancer)
# [5] = system: SW-620; assay: NCI 60 cell line screen (SRB), Colon Cancer; settings: SW-620 (Colon Cancer)
# [6] = system: HOP-92; assay: NCI 60 cell line screen (SRB), Non-Small Cell Lung Cancer; settings: HOP-92 (Non-Small Cell Lung Cancer)
# [7] = system: SF-268; assay: NCI 60 cell line screen (SRB), CNS Cancer; settings: SF-268 (CNS Cancer)
# [8] = system: SNB-19; assay: NCI 60 cell line screen (SRB), CNS Cancer; settings: SNB-19 (CNS Cancer)
# [9] = system: U251; assay: NCI 60 cell line screen (SRB), CNS Cancer
# [10] = system: A549/ATCC; assay: NCI 60 cell line screen (SRB), Non-Small Cell Lung Cancer
# [11] = system: 60 cell line panel; assay: NCI 60 cell line screen, values over the whole panel; settings: mean value over the cell line panel
# [12] = system: OVCAR-3; assay: NCI 60 cell line screen (SRB), Ovarian Cancer; settings: OVCAR-3 (Ovarian Cancer)
# [13] = system: MDA-N; assay: NCI 60 cell line screen (SRB), Breast Cancer
# [14] = system: RPMI-8226; assay: NCI 60 cell line screen (SRB), Leukemia; settings: RPMI-8226 (Leukemia)
# [15] = system: OVCAR-8; assay: NCI 60 cell line screen (SRB), Ovarian Cancer; settings: OVCAR-8 (Ovarian Cancer)
# [16] = system: MCF7/ADR-RES; assay: NCI 60 cell line screen (SRB), Breast Cancer
# [17] = system: SK-MEL-28; assay: NCI 60 cell line screen (SRB), Melanoma; settings: SK-MEL-28 (Melanoma)
# [18] = system: NCI-H322M; assay: NCI 60 cell line screen (SRB), Non-Small Cell Lung Cancer
# [19] = system: COLO 205; assay: NCI 60 cell line screen (SRB), Colon Cancer; settings: COLO 205 (Colon Cancer)
# [20] = system: MCF7; assay: NCI 60 cell line screen (SRB), Breast Cancer
# [21] = system: KM12; assay: NCI 60 cell line screen (SRB), Colon Cancer
# [22] = system: HS 578T; assay: NCI 60 cell line screen (SRB), Breast Cancer; settings: HS 578T (Breast Cancer)
# [23] = system: UO-31; assay: NCI 60 cell line screen (SRB), Renal Cancer; settings: UO-31 (Renal Cancer)
# [24] = system: ACHN; assay: NCI 60 cell line screen (SRB), Renal Cancer
# [25] = system: CAKI-1; assay: NCI 60 cell line screen (SRB), Renal Cancer; settings: CAKI-1 (Renal Cancer)
# [26] = system: LOX IMVI; assay: NCI 60 cell line screen (SRB), Melanoma
# [27] = system: murine keratinocyte cell line PE; assay: Growth inhibition of PE cells (MTT assay); settings: murine keratinocytes, FIGS. 1-9
# [28] = system: BT-549; assay: NCI 60 cell line screen (SRB), Breast Cancer; settings: BT-549 (Breast Cancer)
smiles,measurement,setting,value
"COC1OC2(C)CCC3CCCC(CCOC(=O)c4cccc(C(=O)OCCC5CCCC6CCC7(C)OOC56C(OC)O7)c4)C31OO2 (stereo not shown) [Compound 10, Trioxane Bis-ester Dimer]",Log10GI50,[1],−5.73 M
same,Log10LC50,[1],>−4.30 M
same,Log10TGI,[1],>−4.30 M
same,Log10GI50,[2],−6.14 M
same,Log10LC50,[2],>−4.30 M
same,Log10TGI,[2],>−4.30 M
same,Log10GI50,[3],−6.76 M
same,Log10LC50,[3],>−4.30 M
same,Log10TGI,[3],>−4.30 M
same,Log10GI50,[4],>−4.30 M
same,Log10LC50,[4],>−4.30 M
same,Log10TGI,[4],>−4.30 M
same,Log10GI50,[5],−6.47 M
same,Log10LC50,[5],>−4.30 M
same,Log10TGI,[5],>−4.30 M
same,Log10GI50,[6],−6.01 M
same,Log10LC50,[6],>−4.30 M
same,Log10TGI,[6],−4.64 M
same,Log10GI50,[7],−5.36 M
same,Log10LC50,[7],>−4.30 M
same,Log10TGI,[7],>−4.30 M
same,Log10GI50,[8],>−4.30 M
same,Log10LC50,[8],>−4.30 M
same,Log10TGI,[8],>−4.30 M
same,Log10GI50,[9],−6.09 M
same,Log10LC50,[9],>−4.30 M
same,Log10TGI,[9],>−4.30 M
same,Log10GI50,[10],−5.89 M
same,Log10LC50,[10],>−4.30 M
same,Log10TGI,[10],>−4.30 M
same,Log10GI50 MG MID,[11],−5.77 M
same,Log10LC50 MG MID,[11],−4.30 M
same,Log10TGI MG MID,[11],−4.52 M
same,Log10GI50,[12],−5.53 M
same,Log10LC50,[12],>−4.30 M
same,Log10TGI,[12],>−4.30 M
same,Log10GI50,[13],−5.97 M
same,Log10LC50,[13],>−4.30 M
same,Log10TGI,[13],>−4.30 M
same,Log10GI50,[14],−6.97 M
same,Log10LC50,[14],>−4.30 M
same,Log10TGI,[14],−5.73 M
same,Log10GI50,[15],−6.13 M
same,Log10LC50,[15],>−4.30 M
same,Log10TGI,[15],>−4.30 M
same,Log10GI50,[16],−5.36 M
same,Log10LC50,[16],>−4.30 M
same,Log10TGI,[16],>−4.0 M
same,Log10GI50,[17],−4.94 M
same,Log10LC50,[17],>−4.30 M
same,Log10TGI,[17],>−4.30 M
same,Log10GI50,[18],>−4.30 M
same,Log10LC50,[18],>−4.30 M
same,Log10TGI,[18],>−4.0 M
same,Log10GI50,[19],−6.45 M
same,Log10LC50,[19],−4.48 M
same,Log10TGI,[19],−5.18 M
same,Log10GI50,[20],−5.92 M
same,Log10LC50,[20],>−4.30 M
same,Log10TGI,[20],>−4.30 M
same,Log10GI50,[21],−5.97 M
same,Log10LC50,[21],>−4.30 M
same,Log10TGI,[21],>−4.30 M
same,Log10GI50,[22],−6.07 M
same,Log10LC50,[22],>−4.30 M
same,Log10TGI,[22],>−4.30 M
same,Log10GI50,[23],−5.96 M
same,Log10LC50,[23],>−4.30 M
same,Log10TGI,[23],>−4.30 M
same,Log10GI50,[24],−5.85 M
same,Log10LC50,[24],>−4.30 M
same,Log10TGI,[24],>−4.30 M
same,Log10GI50,[25],−5.66 M
same,Log10LC50,[25],>−4.30 M
same,Log10TGI,[25],>−4.30 M
same,Log10GI50,[26],−6.27 M
same,Log10LC50,[26],>−4.30 M
same,Log10TGI,[26],>−4.30 M
same,antiproliferative activity,[27],high antiproliferative activity
same,Log10GI50,[28],−5.47 M
same,Log10LC50,[28],>−4.30 M
same,Log10TGI,[28],>−4.30 M
